Experimental findings from US8466089B2, “Pyrazole compounds, process for their production and herbicides containing them” (Ishihara Sangyo Kaisha, Ltd., priority 2008, dated 2013) are described below.

Type in all cases: in vivo
Assay [1] concerns Japanese bulrush (Scirpus juncoides). Kind of assay: Test Example 3, paddy field pot, application to irrigated water. The conditions noted are these: Schoenoplectiella juncoides, applied at 0.5 leaf stage, 13th to 17th day after application, read-out: Growth inhibition rate (%) Japanese bulrush. From the text:
(§1) Paddy field soil was put into a 1/1,000,000 hectare pot, and seeds of barnyardgrass (Echinochloa oryzicola vasing.) and Japanese bulrush (Scirpus juncoides) were sown and lightly covered with soil. Then, pot was left to stand in a greenhouse in a state irrigated to a water depth of from 0.5 to 1 cm, and next day or two days later, tubers of Japanese ribbon waparo (Sagittaria pygmaea) were planted. Then, the irrigated water depth was maintained to be from 3 to 4 cm, and when barnyardgrass and Japanese bulrush reached 0.5 leaf stage, and Japanese ribbon waparo reached primary leaf stage, a water diluted solution of a wettable powder or an emulsifiable concentrate of the compound of the present invention prepared in accordance with a conventional preparation method, was uniformly dropwise applied by a pipette so that the amount of active ingredients would be a prescribed amount. Further, paddy field soil was put into a 1/1,000,000 pot, followed by soil puddling to an irrigated water depth of from 3 to 4 cm. Next day, rice (Oryza sativa L.) (var.: Nihonbare) of two leaf stage was transplanted in a transplantation depth of 3 cm. On the 4th day after transplantation, the compound of the present invention was applied in the same manner as described above.
(§2) On the 13th to 17th day after application, the state of growth of barnyardgrass, Japanese bulrush and Japanese ribbon waparo was visually observed, and on the 20th to 23rd day after application, the state of growth of rice was visually observed, and the herbicidal effect was evaluated by a growth inhibition rate (%) of 0 (equivalent to the non-treated area) to 100% (complete kill).

In assay [2] the test system is barnyardgrass (Echinochloa oryzicola vasing.). The assay is described as above. Conditions: applied at 0.5 leaf stage, 13th to 17th day after application, read-out: Growth inhibition rate (%) barnyard grass.
Text: as §1, §2

In assay [3] the test system is rice (Oryza sativa L.) (var.: Nihonbare). Kind of assay: Test Example 3, paddy field pot, transplanted rice. The conditions noted are these: applied 4th day after transplantation, 20th to 23rd day after application, read-out: Growth inhibition rate (%) Rice.
Text: as §1, §2

Assay [4] concerns velvetleaf (Abutilon theophrasti MEDIC.). Kind of assay: Test Example 2, soil application on the day after sowing. The conditions noted are these: 21st to 22nd day after application, visual, read-out: Growth inhibition rate (%) Velvetleaf. From the text: (§3) Upland field soil was put into a 1/170,000 hectare pot, and seeds of various plants (barnyardgrass (Echinochloa crus-galli L.), crabgrass (Digitaria sanquinalis L.), green foxtail (Setaria viridis L.), redroot pigweed (Amaranthus retroflexus L.), prickly sida (Sida spinosa L.), velvetleaf (Abutilon theophrasti MEDIC.), rice (Oryza sativa L.), corn (Zea mays L.), soybean (Glycine max Merr.)) and wheat (Triticum spp.) were sown. On the day after sowing, wettable powders or emulsifiable concentrates of the compounds of the present invention prepared in accordance with a conventional preparation method, were weighed so that the active ingredients became the prescribed amounts, and diluted with water in an amount corresponding to 500 liter per 1 hectare, followed by soil application with a small sprayer.
(§4) On the 21st to 22nd day after the application, the state of growth of the respective plants was visually observed, and the herbicidal effect was evaluated by a growth inhibition rate (%) of from 0 (equivalent to the non-treated area) to 100% (complete kill).

The subject of assay [5] is green foxtail (Setaria viridis L.). The description is as above. The conditions noted are these: 21st to 22nd day after application, visual, read-out: Growth inhibition rate (%) Green foxtail.
Text: as §3, §4

Assay [6] deals with rice (Oryza sativa L.). The description is as above. Conditions: 21st to 22nd day after application, visual, read-out: Growth inhibition rate (%) Rice.
Text: as §3, §4

The test system of assay [7] is corn (Zea mays L.). The description is as above. The conditions noted are these: 21st to 22nd day after application, visual, read-out: Growth inhibition rate (%) Corn.
Text: as §3, §4

In assay [8] the test system is barnyardgrass (Echinochloa crus-galli L.). Described as above. The conditions noted are these: 21st to 22nd day after application, visual, read-out: Growth inhibition rate (%) Barnyardgrass.
Text: as §3, §4

Assay [9] has as its system crabgrass (Digitaria sanquinalis L.). Described as above. Conditions: 21st to 22nd day after application, visual, read-out: Growth inhibition rate (%) Crabgrass.
Text: as §3, §4

Assay [10] has as its system redroot pigweed (Amaranthus retroflexus L.). The description is as above. The conditions noted are these: 21st to 22nd day after application, visual, read-out: Growth inhibition rate (%) Redroot pigweed.
Text: as §3, §4

Assay [11] concerns prickly sida (Sida spinosa L.). The assay is described as above. The conditions noted are these: 21st to 22nd day after application, visual, read-out: Growth inhibition rate (%) Prickly sida.
Text: as §3, §4

Assay [12] relates to wheat (Triticum spp.). Described as above. Conditions: 21st to 22nd day after application, visual, read-out: Growth inhibition rate (%) Wheat.
Text: as §3, §4

The test system of assay [13] is velvetleaf (Abutilon theophrasti MEDIC.). Kind of assay: Test Example 1, foliar treatment in upland pots. Conditions: 20th to 22nd day after application, visual, read-out: Growth inhibition rate (%) Velvetleaf. From the text: (§5) Upland field soil was put into a 1/170,000 hectare pot, and seeds of various plants were sown. When the respective plants reached predetermined leaf stage ((1) barnyardgrass (Echinochloa crus-galli L.): 1.2 to 3.0 leaf stage, (2) crabgrass (Digitaria sanguinalis L.): 1.0 to 3.0 leaf stage, (3) green foxtail (Setaria viridis L.): 1.5 to 3.0 leaf stage, (4) redroot pigweed (Amaranthus retroflexus L.): cotyledon stage to 1.5 leaf stage, (5) prickly sida (Sida spinosa L.): cotyledon stage to 2.0 leaf stage, (6) velvetleaf (Abutilon theophrasti MEDIC.): cotyledon stage to 1.3 leaf stage, (7) rice (Oryza sativa L.): 1.2 to 2.5 leaf stage, (8) corn (Zea mays L.): 2.0 to 3.3 leaf stage, (9) soybean (Glycine max Merr.): primary leaf stage to 0.3 leaf stage) and wheat (Triticum spp.): 2.0 to 3.0 leaf stage, wettable powders or emulsifiable concentrates of the compounds of the present invention prepared in accordance with a conventional preparation method, were weighed so that the active ingredients became the prescribed amounts, and diluted with water in an amount corresponding to 500 liter per 1 hectare (containing 0.1 vol % of an agricultural spreader (“KUSARINOH”, manufactured by NIHON NOHYAKU CO., LTD.)). The spray solutions thus prepared were applied for foliar treatment by a small sprayer.
(§6) On the 20th to 22nd day after application, the state of growth of the respective plants was visually observed, and the herbicidal effect was evaluated by a growth inhibition rate (%) of 0 (equivalent to the non-treated area) to 100% (complete kill).

Assay [14] deals with crabgrass (Digitaria sanguinalis L.). The experiment in a line: Test Example 1, foliar treatment in upland pots. The conditions noted are these: 20th to 22nd day after application, visual, read-out: Growth inhibition rate (%) Crabgrass.
Text: as §5, §6

For assay [15], the system named is green foxtail (Setaria viridis L.). The experiment in a line: Test Example 1, foliar treatment in upland pots. Conditions: 20th to 22nd day after application, visual, read-out: Growth inhibition rate (%) Green foxtail.
Text: as §5, §6

For assay [16], the system named is soybean (Glycine max Merr.). Kind of assay: Test Example 1, foliar treatment in upland pots. The conditions noted are these: 20th to 22nd day after application, visual, read-out: Growth inhibition rate (%) Soybean.
Text: as §5, §6

Assay [17] deals with rice (Oryza sativa L.). Kind of assay: Test Example 1, foliar treatment in upland pots. Conditions: 20th to 22nd day after application, visual, read-out: Growth inhibition rate (%) Rice.
Text: as §5, §6

Assay [18] has as its system corn (Zea mays L.). The experiment in a line: Test Example 1, foliar treatment in upland pots. Conditions: 20th to 22nd day after application, visual, read-out: Growth inhibition rate (%) Corn.
Text: as §5, §6

In assay [19] the test system is barnyardgrass (Echinochloa crus-galli L.). The experiment in a line: Test Example 1, foliar treatment in upland pots. The conditions noted are these: 20th to 22nd day after application, visual, read-out: Growth inhibition rate (%) Barnyardgrass.
Text: as §5, §6

In assay [20] the test system is redroot pigweed (Amaranthus retroflexus L.). The experiment in a line: Test Example 1, foliar treatment in upland pots. The conditions noted are these: 20th to 22nd day after application, visual, read-out: Growth inhibition rate (%) Redroot pigweed.
Text: as §5, §6

Assay [21] concerns prickly sida (Sida spinosa L.). The experiment in a line: Test Example 1, foliar treatment in upland pots. Conditions: 20th to 22nd day after application, visual, read-out: Growth inhibition rate (%) Prickly sida.
Text: as §5, §6

The test system of assay [22] is wheat (Triticum spp.). Kind of assay: Test Example 1, foliar treatment in upland pots. The conditions noted are these: 20th to 22nd day after application, visual, read-out: Growth inhibition rate (%) Wheat.
Text: as §5, §6

As to `COCCOc1c(S(C)(=O)=O)ccc(C(=O)c2c(C)nn(C(C)C)c2O)c1C` [Compound No. 8-2, (5-Hydroxy-1-isopropyl-3-methyl-1H-pyrazol-4-yl)(3-(2-methoxyethoxy)-2-methyl-4-(methylsulfonyl)phenyl)ketone], the figures for the inhibition at 63 g/ha in assay [1], in [2] and in assay [3] were 70%, 40% and 10%, respectively. Further, the inhibition at 250 g/ha in [4] came out at 70%; in [5], 100%; in the assay on rice (Oryza sativa L.) [6] it was 100%; with corn (Zea mays L.) [7], 60%; in [8], 100%; in assay [9], 100%. Besides, the results for the inhibition at 250 g/ha (in assay [10]; in assay [11]; in the assay on wheat (Triticum spp.) [12]) were 100%, 60% and 20%, respectively. The inhibition at 7 g/ha in assay [13] came to 60%; in assay [14], 40%; in [15], 50%; in assay [16] it was 10%; with rice (Oryza sativa L.) [17] it was 0%; with corn (Zea mays L.) [18] it was 0%. In addition, the inhibition at 7 g/ha in assay [19] was found to be 20%; in assay [20], 60%; in [21] it was 20%; in the assay with wheat (Triticum spp.) [22] it was 0%.

The inhibition is the change of the read-out against control, counted positive when it falls.
